#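 Interpolation was linear, between the two tested concentrations surrounding the appropriate level; five concentrations were tested over 48 hours in 96-well plates. The concentration for 50% growth inhibition is given as GI50. TGI: total growth inhibition.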
# Key:
# Experiment in all cases: growth of human tumour cells (NCI), 48 h
# [1] = test system: HCT-116 colon
# [2] = test system: OVCAR-5 ovarian
# [3] = test system: UACC-257 melanoma
# [4] = test system: SF-295 CNS
# [5] = test system: KM12 colon
# [6] = test system: SK-MEL-5 melanoma
# [7] = test system: RXF 393 renal
# [8] = test system: SNB-75 CNS
# [9] = test system: MDA-MB-231 breast
# [10] = test system: TK-10 renal
SMILES,GI50 [1] [µM],TGI [1] [µM],GI50 [2] [µM],TGI [2] [µM],GI50 [3] [µM],TGI [3] [µM],GI50 [4] [µM],TGI [4] [µM],GI50 [5] [µM],TGI [5] [µM],GI50 [6] [µM],TGI [6] [µM],GI50 [7] [µM],TGI [7] [µM],GI50 [8] [µM],TGI [8] [µM],GI50 [9] [µM],TGI [9] [µM],GI50 [10] [µM],TGI [10] [µM]
COc1cnc2c(c1)C(=O)c1c-2n(CCCN2CCCC2)c(=O)c2cc([N+](=O)[O-])ccc12,< 0.01,0.144,0.163,1.52,0.176,11,< 0.01,0.215,0.139,1.77,0.0671,0.322,0.0611,0.533,0.0457,14.3,0.683,2.65,0.373,14.1
Cc1cc2c(F)c(Oc3ncnc(Nc4ccc(N5C[C@@H](C)N[C@@H](C)C5)cc4)c3C#N)cc(F)c2[nH]1,1.69,3.2,2.8,8.68,2.06,4.04,1.95,3.94,2.55,7.3,1.71,3.13,0.641,2.44,1.1,3.18,1.98,4.39,2.65,6.31
COc1cc2nc(N3CCCN(C)CC3)nc(NC3CCN(Cc4ccccc4)CC3)c2cc1OC,2.24,6.19,4.47,15.1,1.74,3.36,1.81,3.46,3.07,9.82,1.73,3.14,1.33,3.12,1.4,4.55,1.68,4.75,1.88,4.02
COc1nc(N)nc2c1ncn2C1CC(O)C(CO)O1 (stereo not given),,> 100,,> 100,,> 100,,> 100,,> 100,,> 100,,> 100,,> 100,,> 100,,> 100
CC(=O)O.CN1[CH-]N(Cc2ccc(C#N)cc2)c2ccccc21.[Ag+],18.5,42.4,58.4,> 100,14.8,29.7,82.3,> 100,> 100,> 100,12.7,27.6,14,28.3,20.6,68.9,18.2,36,18,32
CCN1CCN(CCNc2nccc(-c3c(-c4ccc(F)c(O)c4)nc4occn34)n2)S1(=O)=O,3.76,> 100,> 100,> 100,5.15,> 100,5.27,> 100,3.72,> 100,2.23,5.89,2.51,> 100,3.65,> 100,32.3,> 100,35.6,> 100
CN(C)CCNc1ccc2ncn3c4ccc(O)cc4c(=O)c1c23,,11.5,,15,,19.7,,14,,> 35.7,,8.52,,2.58,,10.2,,5.44,,21.8
O=S(=O)(N=C1C(Cl)=C(Cl)C(=NS(=O)(=O)c2ccccc2)C(Cl)=C1Cl)c1ccccc1,13.6,29.1,45.2,> 100,24,86.3,29.5,93.8,12.2,25.6,13.9,36.5,15.8,30.9,23.5,> 100,21.9,> 100,24.9,61.9
Cc1c(Cn2c(C)nc3c(C(=O)O)cc(N4CCOCC4)cc32)cccc1C(F)(F)F,42.1,> 100,81.7,> 100,61.1,> 100,11,> 84.4,56.7,> 100,47.1,> 100,0.719,> 63.4,12.3,> 100,> 100,> 100,34,> 100
COc1cc(CCC[P+](c2ccccc2)(c2ccccc2)c2ccccc2)c(OC)c2c1OCO2,0.989,16.2,2.38,37,0.378,6.44,2.37,7.39,0.828,6.59,1.21,2.5,2.01,8.43,1.2,4.59,2.11,10.3,4.05,23.3
CSc1ccc(C2=NN(C(C)=O)C(c3ccc(-c4cc(Cl)c(Cl)cc4Cl)o3)C2)cc1 (stereo not given),10.3,21.9,14.3,27.4,22.8,42.7,18.3,45.5,16.9,35.7,12.6,25.1,17.6,35.1,18.7,43.2,11.3,23.3,24.8,50.3
CC1SC(c2ccccc2Cl)N(NC(=O)C(O)c2ccccc2)C1=O (stereo not given),96.1,> 100,> 100,> 100,49.5,> 100,32.4,> 100,> 100,> 100,63.9,> 100,> 100,> 100,> 100,> 100,33.8,> 100,31,> 100
CC1(C)N=C(N)N=C(N)N1c1ccc(CNC(=O)Nc2ccc(S(=O)(=O)F)c(Cl)c2)c(Cl)c1,0.379,> 100,0.332,> 100,5.11,> 100,5.41,> 100,0.589,> 100,0.88,> 74.7,0.525,> 100,3.47,> 100,15.6,> 100,8.39,> 100

# Reference: PubChem BioAssay (NCI)
